Reference: patent US4347252A, “Rodenticidal 1-(3,5-bistrifluoromethylphenyl)-3-(4-t-butylpiperidino)prop-1-yne” (priority 1980, dated 1982)

How the values were obtained:
mice (laboratory strain) = assay: Acute Oral Toxicity in Mice (Laboratory Strain); assay type: in vivo; conditions: for LD50 (acute oral): aqueous suspension; for Observations: signs of poisoning: prior to death / after dosing
Procedure: Acute Oral Toxicity in Mice (Laboratory Strain)
Groups of mice were dosed orally with graded doses of the test compound in aqueous suspension and observed until there had been no deaths for at least three days. The acute oral LD50, that is to say the dose in mg/kg animal body weight necessary to kill 50% of the mice, was determined from the numbers of animals for each dose which died during the observation period by reference to published tables.

[1] = tested on: Wild Rats (Rattus norvegicus); assay: Laboratory Simulated Field Test on Wild Rats in confinement; assay type: in vivo; conditions: for Total bait eaten: poisoned + plain
From the text: Laboratory Simulated Field Test on Wild Rats (Rattus norvegicus) in confinement
One male and nine female rats were given the choice of two feeding points, at each of which the animals were offered a bait consisting of medium oatmeal (95%) and wholemeal flour (5%) (plain bait). After a period of six days during which the plain bait was offered at both feeding points, the plain bait was replaced at one of the feeding points by a bait of the same composition in which 0.1% by weight of the test compound used in Test 2 hereinbefore described had been incorporated (poisoned bait), while the plain bait continued to be offered at the other feeding point.

[2] = tested on: Warfarin-resistant rats (Rattus norvegicus); assay: Field Tests on Rats on three farms; assay type: in vivo
Procedure: Field Tests on Rats (Rattus norvegicus)
Field tests were carried out on warfarin-resistant rats on three farms. Baits were prepared from either medium oatmeal or soaked wheat in which was incorporated 0.1% by weight of the test compound used in Test 2 hereinbefore described. […] The amount of bait eaten per day was determined by weighing and the presence or absence of rats was deduced from the amount of bait eaten and by counting the traces of the presence of rats in patches of dust laid for this purpose.

mice (Mus musculus) [3] = assay: Field Test on Mice; assay type: in vivo
Procedure: Field Test on Mice (Mus musculus)
(1) A non-toxic bait was laid at 3 mouse-infested sites and the amount of bait eaten was determined by weighing. (2) The non-toxic bait was then withdrawn and replaced by a similar bait in which was incorporated 0.1% by weight of the test compound used in Test 2 hereinbefore described (poisoned bait). The amount of poisoned bait which was eaten was similarly determined by weighing over a period of three weeks. (3) The poisoned bait was then withdrawn and replaced by the non-toxic bait and the amount of non-toxic bait which was eaten was also similarly determined by weighing. The results obtained are given in following Table 6, the degree of control being calculated by a comparison of the amounts of non-toxic bait which were eaten during the periods before and after use of the poisoned bait.

mice (Mus musculus) [4] = assay: Laboratory Feeding Tests on Mice in Pens, Test 3(b), choice of poisoned and plain bait; assay type: in vivo
Procedure: (§1) Laboratory Feeding Tests on Mice in Pens
(§2) A bait comprising oatmeal, wholemeal flour and corn oil (plain bait) and a bait of similar composition but incorporating 0.1% by weight of the test compound used in Test 2 hereinbefore described (poisoned bait) were prepared and used in the following tests on mice (Mus musculus) housed in pens.
A choice of poisoned and plain bait was offered to groups of mice.

mice (Mus musculus) [5] = assay: Laboratory Feeding Tests on Mice in Pens, Test 3(a), poisoned bait alone; assay type: in vivo; conditions: 0.1% by weight in bait
Procedure: as §1, §2
The poisoned bait alone was offered to 4 male and 4 female mice.

[6] = tested on: Warfarin-resistant rats (Rattus norvegicus); assay: Laboratory Feeding Tests on Wild Rodents: rats; assay type: in vivo; conditions: 0.1% by weight in bait
From the text: (§3) Laboratory Feeding Tests on Wild Rodents
(§4) Warfarin-resistant rats (Rattus norvegicus) and mice (Mus musculus) from wild populations were fed, in the laboratory, on a bait consisting of coarse oatmeal (90%), wholemeal flour (5%) and corn oil (5%). After feeding for four days on this bait, it was replaced by a treated bait of the same composition, in which 0.1% by weight of the test compound 1-(3,5-bistrifluoromethylphenyl)-3-(4-tert-butylpiperidino)prop-1-yne hydrochloride had been incorporated.

[7] = tested on: Warfarin-resistant mice (Mus musculus); assay: Laboratory Feeding Tests on Wild Rodents: mice; assay type: in vivo; conditions: 0.1% by weight in bait
From the text: as §3, §4

SMILES: CC(C)(C)C1CCN(CC#Cc2cc(C(F)(F)F)cc(C(F)(F)F)c2)CC1.Cl [1-(3,5-bistrifluoromethylphenyl)-3-(4-tert-butylpiperidino)prop-1-yne hydrochloride]
- LD50 (acute oral) (mice (laboratory strain)): 23 mg/kg animal body weight
- Observations: signs of poisoning (mice (laboratory strain)): no marked signs
- Quantity of bait eaten, Feeding Point A, Poisoned bait ([1]; Day 1, 0.1% by weight in bait): 99.7 g
- Quantity of bait eaten, Feeding Point B, Plain bait ([1]; Day 1 of offering poisoned bait at Point A): 80.1 g
- Quantity of bait eaten, Feeding Point A, Poisoned bait ([1]; Day 2): 95.2 g
- Quantity of bait eaten, Feeding Point B, Plain bait ([1]; Day 2 of offering poisoned bait at Point A): 65.9 g
- Quantity of bait eaten, Feeding Point A, Poisoned bait ([1]; Day 3): 19.8 g
- Quantity of bait eaten, Feeding Point B, Plain bait ([1]; Day 3 of offering poisoned bait at Point A): 67.4 g
- Cumulative mortality ([1]; Day 4): 30%
- Quantity of bait eaten, Feeding Point A, Poisoned bait ([1]; Day 4): 5.1 g
- Quantity of bait eaten, Feeding Point B, Plain bait ([1]; Day 4 of offering poisoned bait at Point A): 38.1 g
- Quantity of bait eaten, Feeding Point A, Poisoned bait ([1]; Day 5): 1.8 g
- Quantity of bait eaten, Feeding Point B, Plain bait ([1]; Day 5 of offering poisoned bait at Point A): 27.7 g
- Cumulative mortality ([1]; Day 6): 60%
- Quantity of bait eaten, Feeding Point B, Plain bait ([1]; Day 6 of offering poisoned bait at Point A): 19.3 g
- Cumulative mortality ([1]; Day 7): 70%
- Quantity of bait eaten, Feeding Point B, Plain bait ([1]; Day 7 of offering poisoned bait at Point A): 4.0 g
- Cumulative mortality ([1]; Day 8): 80%
- Quantity of bait eaten, Feeding Point B, Plain bait ([1]; Day 8 of offering poisoned bait at Point A): 6.5 g
- Cumulative mortality ([1]; Day 9): 90%
- Quantity of bait eaten, Feeding Point A, Poisoned bait ([1]; Day 9): 1.3 g
- Quantity of bait eaten, Feeding Point B, Plain bait ([1]; Day 9 of offering poisoned bait at Point A): 3.7 g
- Quantity of bait eaten, Feeding Point A, Poisoned bait ([1]; Day 11): 0.7 g
- Quantity of bait eaten, Feeding Point B, Plain bait ([1]; Day 11 of offering poisoned bait at Point A): 0.7 g
- Cumulative mortality ([1]; Day 12): 100%
- Total bait eaten ([1]; Day 1): 179.8 g
- Total bait eaten ([1]; Day 2): 161.1 g
- Total bait eaten ([1]; Day 3): 97.2 g
- Total bait eaten ([1]; Day 4): 43.2 g
- Total bait eaten ([1]; Day 5): 29.5 g
- Total bait eaten ([1]; Day 6): 19.3 g
- Total bait eaten ([1]; Day 7): 4.0 g
- Total bait eaten ([1]; Day 8): 6.5 g
- Total bait eaten ([1]; Day 9): 5.0 g
- Total bait eaten ([1]; Day 11): 1.4 g
- Total number of dead rats observed during test ([2]; Farm 1): 44
- Amount of bait eaten ([2]; Farm 1, Day 1, 0.1% by weight in bait): 2060 g
- Amount of bait eaten ([2]; Farm 1, Day 2): 440 g
- Amount of bait eaten ([2]; Farm 1, Day 3): 130 g
- Amount of bait eaten ([2]; Farm 1, Day 4): 60 g
- Amount of bait eaten ([2]; Farm 1, Day 6): 245 g
- Amount of bait eaten ([2]; Farm 1, Day 7): 130 g
- Amount of bait eaten ([2]; Farm 1, Day 8): 85 g
- Amount of bait eaten ([2]; Farm 1, Day 9): 30 g
- Amount of bait eaten ([2]; Farm 1, Day 10): 10 g
- Amount of bait eaten ([2]; Farm 1, Day 11): 40 g
- Amount of bait eaten ([2]; Farm 1, Day 14): 65 g
- Total number of dead rats observed during test ([2]; Farm 2): 8
- Amount of bait eaten ([2]; Farm 2, Day 1, 0.1% by weight in bait): 1455 g
- Amount of bait eaten ([2]; Farm 2, Day 2): 1100 g
- Amount of bait eaten ([2]; Farm 2, Day 3): 730 g
- Amount of bait eaten ([2]; Farm 2, Day 4): 210 g
- Amount of bait eaten ([2]; Farm 2, Day 7): 405 g
- Amount of bait eaten ([2]; Farm 2, Day 8): 135 g
- Amount of bait eaten ([2]; Farm 2, Day 9): 40 g
- Amount of bait eaten ([2]; Farm 2, Day 10): 30 g
- Amount of bait eaten ([2]; Farm 2, Day 11): 10 g
- Amount of bait eaten ([2]; Farm 2, Day 14): 95 g
- Amount of bait eaten ([2]; Farm 2, Day 15): 45 g
- Amount of bait eaten ([2]; Farm 2, Day 16): 0 g
- Total number of dead rats observed during test ([2]; Farm 3): 113
- Amount of bait eaten ([2]; Farm 3, Day 1, 0.1% by weight in bait): 4800 g
- Amount of bait eaten ([2]; Farm 3, Day 2): 2680 g
- Amount of bait eaten ([2]; Farm 3, Day 3): 360 g
- Amount of bait eaten ([2]; Farm 3, Day 4): 445 g
- Amount of bait eaten ([2]; Farm 3, Day 7): 565 g
- Amount of bait eaten ([2]; Farm 3, Day 8): 205 g
- Amount of bait eaten ([2]; Farm 3, Day 9): 185 g
- Amount of bait eaten ([2]; Farm 3, Day 10): 65 g
- Amount of bait eaten ([2]; Farm 3, Day 11): 15 g
- rats initially present on the farms killed (estimated) ([2]; by the fourth day of the tests): about 80%
- percentage kill compared with anticoagulant rodenticides ([2]; by the fourth day, vs usual kill with anticoagulant rodenticides used similarly): significantly higher percentage kill
- Estimated Control (mice (Mus musculus) [3]; Site 1): 98.8%
- Amount of non-toxic bait eaten per week in period following use of poisoned bait (mice (Mus musculus) [3]; Site 1 (912 g per week before)): 11 g
- Amount of poisoned bait eaten (mice (Mus musculus) [3]; Site 1, Week 1, 0.1% by weight in bait): 368 g
- Amount of poisoned bait eaten (mice (Mus musculus) [3]; Site 1, Week 2): 1 g
- Estimated Control (mice (Mus musculus) [3]; Site 2): 98.9%
- Amount of non-toxic bait eaten per week in period following use of poisoned bait (mice (Mus musculus) [3]; Site 2 (897 g per week before)): 10 g
- Amount of poisoned bait eaten (mice (Mus musculus) [3]; Site 2, Week 1, 0.1% by weight in bait): 441 g
- Amount of poisoned bait eaten (mice (Mus musculus) [3]; Site 2, Week 2): 0 g
- Estimated Control (mice (Mus musculus) [3]; Site 3): 100%
- Amount of non-toxic bait eaten per week in period following use of poisoned bait (mice (Mus musculus) [3]; Site 3 (1880 g per week before)): 0 g
- Amount of poisoned bait eaten (mice (Mus musculus) [3]; Site 3, Week 1, 0.1% by weight in bait): 929 g
- Amount of poisoned bait eaten (mice (Mus musculus) [3]; Site 3, Week 2): 115 g
- Amount of poisoned bait eaten (mice (Mus musculus) [3]; Site 3, Week 3): 11 g
- Mortality (mice (Mus musculus) [4]; 15 mice in pen): 93.7%
- Quantity of poisoned bait eaten (mice (Mus musculus) [4]; 15 mice in pen, Days 1 to 7): 43.0 g
- Quantity of poisoned bait eaten (mice (Mus musculus) [4]; 15 mice in pen, Days 8 to 14): 1.2 g
- Quantity of poisoned bait eaten (mice (Mus musculus) [4]; 15 mice in pen, Days 15 to 21): 0.3 g
- Mortality (mice (Mus musculus) [4]; 16 mice in pen (first line)): 93.8%
- Quantity of poisoned bait eaten (mice (Mus musculus) [4]; 16 mice in pen (first line), Days 1 to 7): 55.0 g
- Quantity of poisoned bait eaten (mice (Mus musculus) [4]; 16 mice in pen (first line), Days 8 to 14): 0.5 g
- Quantity of poisoned bait eaten (mice (Mus musculus) [4]; 16 mice in pen (first line), Days 15 to 21): 0.0 g
- Mortality (mice (Mus musculus) [4]; 16 mice in pen (fourth line)): 93.8%
- Quantity of poisoned bait eaten (mice (Mus musculus) [4]; 16 mice in pen (fourth line), Days 1 to 7): 25.7 g
- Quantity of poisoned bait eaten (mice (Mus musculus) [4]; 16 mice in pen (fourth line), Days 8 to 14): 2.0 g
- Quantity of poisoned bait eaten (mice (Mus musculus) [4]; 16 mice in pen (fourth line), Days 15 to 21): 0.3 g
- Mortality (mice (Mus musculus) [4]; 24 mice in pen): 91.7%
- Quantity of poisoned bait eaten (mice (Mus musculus) [4]; 24 mice in pen, Days 1 to 7): 42.3 g
- Quantity of poisoned bait eaten (mice (Mus musculus) [4]; 24 mice in pen, Days 8 to 14): 3.5 g
- Quantity of poisoned bait eaten (mice (Mus musculus) [4]; 24 mice in pen, Days 15 to 21): 0.7 g
- Days to Death, Mean (mice (Mus musculus) [5]): 5.5 days
- Mortality (mice (Mus musculus) [5]): 100%
- Quantity of poisoned bait eaten (mice (Mus musculus) [5]; Day 1, 4 male and 4 female mice): 19.1 g
- Quantity of poisoned bait eaten (mice (Mus musculus) [5]; Day 2): 18.8 g
- Quantity of poisoned bait eaten (mice (Mus musculus) [5]; Day 3): 15.4 g
- Quantity of poisoned bait eaten (mice (Mus musculus) [5]; Days 4-7): 13.7 g
- Days to Death, Mean ([6]; female rats): 5.8 days
- Mortality ([6]; female rats): 5/5
- Days to Death, Mean ([6]; male rats): 7.2 days
- Mortality ([6]; male rats): 5/5
- Days to Death, Mean ([7]; female mice): 5.8 days
- Mortality ([7]; female mice): 5/5
- Days to Death, Mean ([7]; male mice): 6.2 days
- Mortality ([7]; male mice): 5/5

SMILES: CC(C)(C)C1CCN(CC#Cc2cc(C(F)(F)F)cc(C(F)(F)F)c2)CC1 [Compound of formula I as free base, 1-(3,5-bistrifluoromethylphenyl)-3-(4-tert-butylpiperidino)prop-1-yne]
- LD50 (acute oral) (mice (laboratory strain)): 68 mg/kg animal body weight
- Observations: signs of poisoning (mice (laboratory strain)): Some signs of poisoning
- major symptom of toxicity (rodents; in vivo): sedation is the major symptom of toxicity
- manner of death of treated animals (rodents; in vivo): die quietly, without exhibiting signs of distress
- period of delay between ingestion and death compared with anticoagulant rodenticides (rodents; vs anticoagulant rodenticides): shorter
- toxicity to strains of rodents resistant to anticoagulant rodenticides (rodents; vs strains which do not possess this resistance): equally as toxic
